Measured values published in patent publication US20130029970A1 (priority 2009, published 2013).
Read-outs that look alike come from different tables or passages of the source.

Key:
human CB1 (hCB1) = target: T1, human CB1 (hCB1) (Homo sapiens, UniProt P21554); test: 35S GTPγS binding assay, hCB1 agonist; type: biochemical
T1 construct: (cDNA clone) CNR01L000

human CB2 receptors = target: T2, human CB2 receptors (Homo sapiens, UniProt P34972); test: cAMP assay in HEK-293 cells, hCB2 agonist; type: cell-based
T2 construct: (cDNA clone) CNR0200000
T2 sequence (P34972 whole entry): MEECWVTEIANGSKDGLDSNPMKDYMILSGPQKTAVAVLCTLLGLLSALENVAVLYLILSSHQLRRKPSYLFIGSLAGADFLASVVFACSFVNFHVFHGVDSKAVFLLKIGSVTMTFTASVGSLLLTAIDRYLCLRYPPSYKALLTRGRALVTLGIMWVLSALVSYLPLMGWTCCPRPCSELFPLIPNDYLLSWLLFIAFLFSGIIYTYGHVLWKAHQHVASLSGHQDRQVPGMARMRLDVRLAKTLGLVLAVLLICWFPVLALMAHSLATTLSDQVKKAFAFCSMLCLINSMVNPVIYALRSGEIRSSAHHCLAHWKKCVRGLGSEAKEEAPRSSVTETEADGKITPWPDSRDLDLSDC
Summary of the method: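 Stable hCB2 HEK-293 cells in HBSS/10 mM HEPES/0.1% fatty-acid-free BSA incubated 30 min at 37° C with compound; forskolin 90 uM in 3× compound mix.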

[1] = target: T3, recombinant human cannabinoid receptor CB1 (Homo sapiens, UniProt P21554); test: Cannabinoid receptor radioligand binding assay, [3H]-CP 55,940 displacement, hCB1
T3 construct: (cDNA clone) CNR01L000
T3 sequence (P21554 whole entry): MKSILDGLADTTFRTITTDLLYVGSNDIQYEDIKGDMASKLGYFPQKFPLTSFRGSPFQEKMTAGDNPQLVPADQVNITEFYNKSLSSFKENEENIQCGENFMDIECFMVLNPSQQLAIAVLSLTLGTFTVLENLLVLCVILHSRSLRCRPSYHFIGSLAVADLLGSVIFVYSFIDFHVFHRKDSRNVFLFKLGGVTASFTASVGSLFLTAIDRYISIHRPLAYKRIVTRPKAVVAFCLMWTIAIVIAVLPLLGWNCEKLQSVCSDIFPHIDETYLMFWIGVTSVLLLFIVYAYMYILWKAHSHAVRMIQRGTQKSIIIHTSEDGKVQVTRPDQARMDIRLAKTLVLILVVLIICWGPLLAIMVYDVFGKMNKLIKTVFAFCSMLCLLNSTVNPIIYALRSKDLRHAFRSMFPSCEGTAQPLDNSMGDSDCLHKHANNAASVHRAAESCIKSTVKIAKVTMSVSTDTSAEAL
Summary of the method: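 Displacement of 0.5 nM [3H]-CP 55,940 (1 μM unlabeled CP 55,940 for nonspecific) measured by filtration and scintillation counting. Binding ran 90 min at room temperature in pH 7.5 Tris buffer with 0.1% fatty-acid-free BSA, using recombinant hCB1 HEK-293 membranes at 2-10 μg protein.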

[2] = GTPγS agonist, HEK-293 membranes, read-out: hCB1 EC50 (GTPyS ag)
[3] = inhibition of forskolin-stimulated cAMP, HEK-293 cells, read-out: hCB2 EC50 (cAMP ag)

T1 sequence (P21554 whole entry): as above

Row | Structure (SMILES) | EC50 (human CB1 (hCB1); [2]) [nM] | EC50 (human CB2 receptors) [nM] | IC50 [1] [nM] | EC50 (human CB1 (hCB1)) [nM] | EC50 (human CB2 receptors; [3]) [nM]
1 | Cc1cc2cc(C(=O)c3ccccc3OC(F)(F)F)sc2n1CCN1CCOCC1 [Compound 15, (5-Methyl-6-(2-morpholinoethyl)-6H-thieno[2,3-b]pyrrol-2-yl)(2-(trifluoromethoxy)phenyl)methanone] | 100 to 1000 | < 100 | < 100 |  | 
2 | Cc1c(Cl)c2cc(C(=O)c3cccc(Cl)c3Cl)sc2n1CCN1CCOCC1 [Compound 27, (4-chloro-5-methyl-6-(2-morpholinoethyl)-6H-thieno[2,3-b]pyrrol-2-yl)(2,3-dichlorophenyl)methanone] |  | < 100 | < 100 | 100 to 1000 | 
3 | Cc1cc2cc(C(=O)c3cc(Cl)ccc3Cl)sc2n1CCN1CCOCC1 [Compound 35, (2,5-Dichlorophenyl)(5-methyl-6-(2-morpholinoethyl)-6H-thieno[2,3-b]pyrrol-2-yl)methanone] | 100 to 1000 | < 100 | 100 to 1000 |  | 
4 | COc1ccc(C(=O)c2cc3cc(C)n(CCCNC(=O)C(F)(F)F)c3s2)cc1 [Compound 76, 2,2,2-Trifluoro-N-(3-(2-(4-methoxybenzoyl)-5-methyl-6H-thieno[2,3-b]pyrrol-6-yl)propyl)acetamide] | < 100 | 100 to 1000 | 1000 to 10000 |  | 
5 | COc1ccc(C(=O)c2cc3cc(C)n(CCC(C)(C)O)c3s2)cc1 [Compound 77, (6-(3-Hydroxy-3-methylbutyl)-5-methyl-6H-thieno[2,3-b]pyrrol-2-yl)(4-methoxyphenyl)methanone] | < 100 | 100 to 1000 | 1000 to 10000 |  | 
6 | Cc1ccc(C(=O)c2cc3cc(C)n(CCN4CCOCC4)c3s2)c(Cl)c1 [Compound 86, (2-Chloro-4-methylphenyl)(5-methyl-6-(2-morpholinoethyl)-6H-thieno[2,3-b]pyrrol-2-yl)methanone] | 1000 to 10000 | < 100 | 100 to 1000 |  | 
7 | COc1ccc(C(=S)c2cc3cc(C)n(CCN4CCOCC4)c3s2)cc1 [Compound 104, (4-methoxyphenyl)(5-methyl-6-(2-morpholinoethyl)-6H-thieno[2,3-b]pyrrol-2-yl)methanethione] |  | 100 to 1000 | 1000 to 10000 |  | 
8 | COc1ccc(C(=O)c2cc3cc(C)n(CCCNS(N)(=O)=O)c3s2)cc1 [Compound 105] |  | 1000 to 10000 | > 10000 |  | 
9 | Cc1cc2cc(C(=O)c3ccc4c(c3)OCO4)sc2n1CCN1CCOCC1 [Compound 106, Benzo[d][1,3]dioxol-5-yl(5-methyl-6-(2-morpholinoethyl)-6H-thieno[2,3-b]pyrrol-2-yl)methanone] |  | < 100 | 1000 to 10000 |  | 
10 | COc1ccc(C(=O)c2cc3cc(C)n(CCCNC(C)(C)C)c3s2)cc1 [Compound 108, (6-(3-(tert-Butylamino)propyl)-5-methyl-6H-thieno[2,3-b]pyrrol-2-yl)(4-methoxyphenyl)methanone] |  | 1000 to 10000 | > 10000 |  | 
11 | COc1ccc(C(=O)c2cc3cc(C)n(CCCNS(C)(=O)=O)c3s2)cn1 [Compound 109, N-(3-(2-(6-Methoxynicotinoyl)-5-methyl-6H-thieno[2,3-b]pyrrol-6-yl)propyl)methanesulfonamide] |  |  | > 10000 |  | < 100
12 | COc1ccc(C(=O)c2cc3cc(C)n(CCN4CCSCC4)c3s2)cc1 [Compound 110, (4-Methoxyphenyl)(5-methyl-6-(2-thiomorpholinoethyl)-6H-thieno[2,3-b]pyrrol-2-yl)methanone] |  | < 100 | 1000 to 10000 |  | 
13 | Cc1cc2cc(C(=O)c3ccc(OC(C)C)cc3)sc2n1CCN1CCOCC1 [Compound 111, (4-Isopropoxyphenyl)(5-methyl-6-(2-morpholinoethyl)-6H-thieno[2,3-b]pyrrol-2-yl)methanone] |  | < 100 | 1000 to 10000 |  | 
14 | COc1ccc(C(=O)c2cc3cc(C)n(Cc4ccncc4)c3s2)cc1 [Compound 112, (4-Methoxyphenyl)(5-methyl-6-(pyridin-4-ylmethyl)-6H-thieno[2,3-b]pyrrol-2-yl)methanone] |  | 100 to 1000 | 1000 to 10000 |  | 
15 | COc1ccc(C(=O)c2cc3cc(C)n(S(=O)(=O)N(C)C)c3s2)cn1 [Compound 113, 2-(6-Methoxynicotinoyl)-N,N,5-trimethyl-6H-thieno[2,3-b]pyrrole-6-sulfonamide] |  | < 100 | 1000 to 10000 |  | 
16 | COc1ccc(C(=O)c2cc3cc(C)n(Cc4ccccc4)c3s2)c(Cl)c1 [Compound 114, (6-Benzyl-5-methyl-6H-thieno[2,3-b]pyrrol-2-yl)(2-chloro-4-methoxyphenyl)methanone] |  |  | 1000 to 10000 |  | 1000 to 10000
17 | CSc1ccc(C(=O)c2cc3cc(C)n(CCN4CCOCC4)c3s2)cc1 [Compound 115, (5-Methyl-6-(2-morpholinoethyl)-6H-thieno[2,3-b]pyrrol-2-yl)(4-(methylthio)phenyl)methanone] |  | 100 to 1000 | 1000 to 10000 |  | 

Row | Structure (SMILES) | EC50 (human CB1 (hCB1); [2]) [nM] | EC50 (human CB2 receptors) [nM] | IC50 [1] [nM] | EC50 (human CB1 (hCB1)) [nM] | EC50 (human CB2 receptors; [3]) [nM]
18 | COc1ccc(C(=O)c2cc3cc(C)n(CCN4CCOCC4)c3s2)cc1Cl [Compound 116, (3-Chloro-4-methoxyphenyl)(5-methyl-6-(2-morpholinoethyl)-6H-thieno[2,3-b]pyrrol-2-yl)methanone] |  | < 100 | 1000 to 10000 |  | 
19 | COc1ccc(C(=O)c2cc3cc(C)n(CCN4CCCCC4)c3s2)cn1 [Compound 117, (6-Methoxypyridin-3-yl)(5-methyl-6-(2-(piperidin-1-yl)ethyl)-6H-thieno[2,3-b]pyrrol-2-yl)methanone] |  | < 100 | 1000 to 10000 |  | 
20 | CCc1ccc(C(=O)c2cc3cc(C)n(CCN4CCOCC4)c3s2)cc1 [Compound 122, (4-Ethylphenyl)(5-methyl-6-(2-morpholinoethyl)-6H-thieno[2,3-b]pyrrol-2-yl)methanone] |  | < 100 | 1000 to 10000 |  | 
21 | Cc1cc2cc(C(=O)c3cccc(Cl)n3)sc2n1CCN1CCOCC1 [Compound 123, (6-Chloropyridin-2-yl)(5-methyl-6-(2-morpholinoethyl)-6H-thieno[2,3-b]pyrrol-2-yl)methanone] |  | < 100 | 1000 to 10000 |  | 
22 | Cc1ccc(C(=O)c2cc3cc(C)n(CCN4CCOCC4)c3s2)cc1 [Compound 124, (5-Methyl-6-(2-morpholinoethyl)-6H-thieno[2,3-b]pyrrol-2-yl)(p-tolyl)methanone] |  | < 100 | 1000 to 10000 |  | 
23 | Cc1ccc(C(O)c2cc3cc(C)n(CCN4CCOCC4)c3s2)cn1 (stereo not drawn) [Compound 125, (5-Methyl-6-(2-morpholinoethyl)-6H-thieno[2,3-b]pyrrol-2-yl)(6-methylpyridin-3-yl)methanol] |  | 100 to 1000 | > 10000 |  | 
24 | COc1cc(F)c(C(=O)c2cc3cc(C)n(CCN4CCOCC4)c3s2)c(F)c1 [Compound 127, (2,6-difluoro-4-methoxyphenyl)(5-methyl-6-(2-morpholinoethyl)-6H-thieno[2,3-b]pyrrol-2-yl)methanone] |  | < 100 | 1000 to 10000 |  | 
25 | Cc1ccc(C(=O)c2cc3cc(C)n(CCN4CCOCC4)c3s2)cn1 [Compound 130, (5-methyl-6-(2-morpholinoethyl)-6H-thieno[2,3-b]pyrrol-2-yl)(6-methylpyridin-3-yl)methanone] |  | 100 to 1000 | > 10000 |  | 
26 | COc1ccc(C(=O)c2cc3cc(C)n(CCN4CCOCC4)c3s2)nc1 [Compound 131, (5-methoxypyridin-2-yl)(5-methyl-6-(2-morpholinoethyl)-6H-thieno[2,3-b]pyrrol-2-yl)methanone] |  | < 100 | 1000 to 10000 |  | 
27 | Cc1cc2cc(C(=O)c3ccc(N(C)C(=O)OC(C)(C)C)cc3)sc2n1CCN1CCOCC1 [Compound 132, tert-butylmethyl(4-(5-methyl-6-(2-morpholinoethyl)-6H-thieno[2,3-b]pyrrole-2-carbonyl)phenyl)carbamate] |  | 100 to 1000 | 1000 to 10000 |  | 
28 | CNc1ccc(C(=O)c2cc3cc(C)n(CCN4CCOCC4)c3s2)cc1 [Compound 134, (5-methyl-6-(2-morpholinoethyl)-6H-thieno[2,3-b]pyrrol-2-yl)(4-(methylamino)phenyl)methanone] |  | < 100 | 1000 to 10000 |  | 
29 | COc1ccc(C(=O)c2cc3c(Cl)c(C)n(CCN4CCOCC4)c3s2)cc1 [Compound 140, (4-chloro-5-methyl-6-(2-morpholinoethyl)-6H-thieno[2,3-b]pyrrol-2-yl)(4-methoxyphenyl)methanone] |  | < 100 | 1000 to 10000 |  | 
30 | CCN(CC)CCn1c(C)cc2cc(C(=O)c3ccc(OC)nc3)sc21 [Compound 142, (6-(2-(diethylamino)ethyl)-5-methyl-6H-thieno[2,3-b]pyrrol-2-yl)(6-methoxypyridin-3-yl)methanone] |  | 100 to 1000 | > 10000 |  | 
31 | COc1ccc(C(=O)c2cc3cc(C)n(CC4CCOCC4)c3s2)cn1 [Compound 144, (6-methoxypyridin-3-yl)(5-methyl-6-((tetrahydro-2H-pyran-4-yl)methyl)-6H-thieno[2,3-b]pyrrol-2-yl)methanone] |  | < 100 | 1000 to 10000 |  | 
32 | COc1ccc(C(=O)c2cc3cc(C)n(CC4CCOCC4)c3s2)c(F)c1 [Compound 145, (2-fluoro-4-methoxyphenyl)(5-methyl-6-((tetrahydro-2H-pyran-4-yl)methyl)-6H-thieno[2,3-b]pyrrol-2-yl)methanone] |  | < 100 | 1000 to 10000 |  | 
33 | CCOc1ccc(C(=O)c2cc3cc(C)n(CCN4CCOCC4)c3s2)cn1 [Compound 150, (6-Ethoxypyridin-3-yl)(5-methyl-6-(2-morpholinoethyl)-6H-thieno[2,3-b]pyrrol-2-yl)methanone] |  | < 100 | > 10000 |  | 
